Experimental data as given in publication PMC7265341, “Quantifying CDK inhibitor selectivity in live cells” (Nature Communications, 2020).
Like-named read-outs stand apart in the source and are kept apart here.

Tests used:
CDK1/Cyclin E1 = CDK1/Cyclin E1 (Homo sapiens, UniProt P06493); assay: NanoBRET live-cell target engagement, CDK1-NanoLuc/Cyclin E1 in HEK-293; format: binding; details: CDK1/E1, read-out: Inhibition at 10µM (%)
CDK2/Cyclin E1 = CDK2/Cyclin E1 (Homo sapiens, UniProt P24941); assay: NanoBRET live-cell target engagement, CDK2-NanoLuc/Cyclin E1 in HEK-293; format: binding; details: read-out: Inhibition at 10µM (%), CDK2/E1
CDK3/Cyclin E1 = CDK3/Cyclin E1 (Homo sapiens, UniProt Q00526); assay: NanoBRET live-cell target engagement, CDK3-NanoLuc/Cyclin E1 in HEK-293; format: binding; details: CDK3/E1, read-out: Inhibition at 10µM (%)
CDK3/Cyclin E1, sequence (Q00526 whole entry): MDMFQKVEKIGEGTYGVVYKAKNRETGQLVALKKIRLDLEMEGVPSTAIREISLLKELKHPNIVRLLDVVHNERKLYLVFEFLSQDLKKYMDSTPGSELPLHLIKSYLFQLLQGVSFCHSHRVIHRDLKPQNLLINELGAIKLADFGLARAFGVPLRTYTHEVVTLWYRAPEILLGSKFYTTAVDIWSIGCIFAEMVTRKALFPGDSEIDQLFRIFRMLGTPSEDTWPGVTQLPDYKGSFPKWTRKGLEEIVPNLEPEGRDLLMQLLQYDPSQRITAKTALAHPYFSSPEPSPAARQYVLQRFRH
CDK3/Cyclin E1, sequence (P24864 whole entry partner): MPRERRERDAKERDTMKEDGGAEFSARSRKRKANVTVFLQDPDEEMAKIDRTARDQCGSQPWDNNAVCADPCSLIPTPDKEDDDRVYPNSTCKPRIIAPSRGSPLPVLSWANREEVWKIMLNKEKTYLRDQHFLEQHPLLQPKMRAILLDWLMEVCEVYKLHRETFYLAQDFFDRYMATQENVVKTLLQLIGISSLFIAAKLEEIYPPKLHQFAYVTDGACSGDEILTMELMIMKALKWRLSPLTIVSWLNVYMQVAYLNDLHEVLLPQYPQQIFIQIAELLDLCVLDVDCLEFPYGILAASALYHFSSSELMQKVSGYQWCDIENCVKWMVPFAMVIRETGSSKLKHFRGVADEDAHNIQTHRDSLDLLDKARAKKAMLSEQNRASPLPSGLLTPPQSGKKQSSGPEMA

CDK4/Cyclin D1 = CDK4/Cyclin D1 (Homo sapiens, UniProt P11802); assay: NanoBRET live-cell target engagement, NanoLuc-CDK4/Cyclin D1 in HEK-293; format: binding; details: CDK4/D1; for IC50: read-out: IC50; for inhibition at 10 µM: read-out: Inhibition at 10µM (%)
CDK5/CDK5R1 = CDK5/CDK5R1 (Homo sapiens, UniProt Q00535); assay: NanoBRET live-cell target engagement, CDK5-NanoLuc/CDK5R1 in HEK-293; format: binding; details: CDK5/CDK5R1, read-out: Inhibition at 10µM (%)
CDK6/Cyclin D1 = CDK6/Cyclin D1 (Homo sapiens, UniProt Q00534); assay: NanoBRET live-cell target engagement, NanoLuc-CDK6/Cyclin D1 in HEK-293; format: binding; details: CDK6/D1; for IC50: read-out: IC50; for inhibition at 10 µM: read-out: Inhibition at 10µM (%)
CDK7 = CDK7 (Homo sapiens, UniProt P50613); assay: NanoBRET live-cell target engagement, NanoLuc-CDK7 in HEK-293; format: binding; details: CDK7; for IC50: read-out: IC50; for inhibition at 10 µM: read-out: Inhibition at 10µM (%)
CDK7, sequence (P50613 whole entry): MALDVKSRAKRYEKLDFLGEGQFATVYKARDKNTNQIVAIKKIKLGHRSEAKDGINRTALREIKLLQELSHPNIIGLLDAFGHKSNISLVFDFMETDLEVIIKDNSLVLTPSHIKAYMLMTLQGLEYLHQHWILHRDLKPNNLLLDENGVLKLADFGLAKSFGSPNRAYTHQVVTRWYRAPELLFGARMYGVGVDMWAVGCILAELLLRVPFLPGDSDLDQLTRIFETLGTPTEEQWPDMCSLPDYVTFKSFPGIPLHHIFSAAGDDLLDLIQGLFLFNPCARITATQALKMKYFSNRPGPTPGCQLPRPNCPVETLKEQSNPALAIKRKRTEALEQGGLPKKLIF

CDK8/Cyclin C = CDK8/Cyclin C (Homo sapiens, UniProt P49336); assay: NanoBRET live-cell target engagement, NanoLuc-CDK8/Cyclin C in HEK-293; format: binding; details: CDK8/C, read-out: Inhibition at 10µM (%)
CDK9/Cyclin K = CDK9/Cyclin K (Homo sapiens, UniProt P50750); assay: NanoBRET live-cell target engagement, NanoLuc-CDK9/Cyclin K in HEK-293; format: binding; details: CDK9/K, read-out: Inhibition at 10µM (%)
CDK11A/Cyclin L2 = molecular target: T1, CDK11A/Cyclin L2 (Homo sapiens, UniProt Q9UQ88); assay: NanoBRET live-cell target engagement, CDK11A-NanoLuc/Cyclin L2 in HEK-293; format: binding; details: CDK11a/L2, read-out: Inhibition at 10µM (%)
T1 sequence (Q9UQ88 1-783): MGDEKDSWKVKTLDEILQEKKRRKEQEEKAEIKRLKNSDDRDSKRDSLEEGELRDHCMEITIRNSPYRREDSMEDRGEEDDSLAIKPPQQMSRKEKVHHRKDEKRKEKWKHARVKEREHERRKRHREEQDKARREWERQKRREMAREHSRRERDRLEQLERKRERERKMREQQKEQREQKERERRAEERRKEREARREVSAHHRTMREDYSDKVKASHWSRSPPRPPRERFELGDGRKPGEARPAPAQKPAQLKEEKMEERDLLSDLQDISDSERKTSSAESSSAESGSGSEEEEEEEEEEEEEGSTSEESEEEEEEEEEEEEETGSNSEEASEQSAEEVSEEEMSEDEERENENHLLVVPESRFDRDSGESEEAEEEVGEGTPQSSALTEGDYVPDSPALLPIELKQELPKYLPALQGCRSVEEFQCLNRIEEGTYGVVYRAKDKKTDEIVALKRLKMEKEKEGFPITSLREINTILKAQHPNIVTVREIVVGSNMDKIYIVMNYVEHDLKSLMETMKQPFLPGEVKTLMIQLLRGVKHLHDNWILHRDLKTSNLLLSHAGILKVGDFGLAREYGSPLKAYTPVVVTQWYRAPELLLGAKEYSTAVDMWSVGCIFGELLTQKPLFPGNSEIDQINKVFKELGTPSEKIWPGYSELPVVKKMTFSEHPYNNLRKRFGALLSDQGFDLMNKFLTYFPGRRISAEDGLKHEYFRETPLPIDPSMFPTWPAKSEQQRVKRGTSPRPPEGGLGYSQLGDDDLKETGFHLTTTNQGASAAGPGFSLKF

CDK11B/Cyclin L2 = CDK11B/Cyclin L2 (Homo sapiens, UniProt P21127); assay: NanoBRET live-cell target engagement, CDK11B-NanoLuc/Cyclin L2 in HEK-293; format: binding; details: CDK11b/L2, read-out: Inhibition at 10µM (%)
CDK11B/Cyclin L2, sequence (P21127 1-782 isoform P21127-2): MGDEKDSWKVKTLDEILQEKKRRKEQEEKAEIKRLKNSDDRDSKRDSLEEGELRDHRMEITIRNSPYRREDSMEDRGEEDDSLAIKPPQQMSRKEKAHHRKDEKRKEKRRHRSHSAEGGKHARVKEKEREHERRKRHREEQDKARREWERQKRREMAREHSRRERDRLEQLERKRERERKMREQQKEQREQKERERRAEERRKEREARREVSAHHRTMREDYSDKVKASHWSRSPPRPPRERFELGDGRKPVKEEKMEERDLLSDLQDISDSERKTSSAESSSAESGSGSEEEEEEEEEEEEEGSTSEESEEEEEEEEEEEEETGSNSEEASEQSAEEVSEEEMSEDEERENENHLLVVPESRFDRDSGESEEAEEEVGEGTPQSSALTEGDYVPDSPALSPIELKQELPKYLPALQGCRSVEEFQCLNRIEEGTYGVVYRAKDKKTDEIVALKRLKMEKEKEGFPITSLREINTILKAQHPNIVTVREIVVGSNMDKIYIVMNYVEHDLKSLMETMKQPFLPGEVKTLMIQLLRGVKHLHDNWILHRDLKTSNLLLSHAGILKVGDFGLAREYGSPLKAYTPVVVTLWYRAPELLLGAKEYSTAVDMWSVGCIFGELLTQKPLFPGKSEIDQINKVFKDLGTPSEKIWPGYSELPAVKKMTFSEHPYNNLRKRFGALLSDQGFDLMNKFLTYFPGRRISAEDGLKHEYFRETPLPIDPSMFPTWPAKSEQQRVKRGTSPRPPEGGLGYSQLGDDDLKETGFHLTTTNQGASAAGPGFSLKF

CDK12/Cyclin K = CDK12/Cyclin K (Homo sapiens, UniProt Q9NYV4); assay: NanoBRET live-cell target engagement, CDK12-NanoLuc/Cyclin K in HEK-293; format: binding; details: CDK12/K, read-out: Inhibition at 10µM (%)
CDK13/Cyclin K = CDK13/Cyclin K (Homo sapiens, UniProt Q14004); assay: NanoBRET live-cell target engagement, CDK13-NanoLuc/Cyclin K in HEK-293; format: binding; details: CDK13/K, read-out: Inhibition at 10µM (%)
CDK13/Cyclin K, sequence (O75909 whole entry): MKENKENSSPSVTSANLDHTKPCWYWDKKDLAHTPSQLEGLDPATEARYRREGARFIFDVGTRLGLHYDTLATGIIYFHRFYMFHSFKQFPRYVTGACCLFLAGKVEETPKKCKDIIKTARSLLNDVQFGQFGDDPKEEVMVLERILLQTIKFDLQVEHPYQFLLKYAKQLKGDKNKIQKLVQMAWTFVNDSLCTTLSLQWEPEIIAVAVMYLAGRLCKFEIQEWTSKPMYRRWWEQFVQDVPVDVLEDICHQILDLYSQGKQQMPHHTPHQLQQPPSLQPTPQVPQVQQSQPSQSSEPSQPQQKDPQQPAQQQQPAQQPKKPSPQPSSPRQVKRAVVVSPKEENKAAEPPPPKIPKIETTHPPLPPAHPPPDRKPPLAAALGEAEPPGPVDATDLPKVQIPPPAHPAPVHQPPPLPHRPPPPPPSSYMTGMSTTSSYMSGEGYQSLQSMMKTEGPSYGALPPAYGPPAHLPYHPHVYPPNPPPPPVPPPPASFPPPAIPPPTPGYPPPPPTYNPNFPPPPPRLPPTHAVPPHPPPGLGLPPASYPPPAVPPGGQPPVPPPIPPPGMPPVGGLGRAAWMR
CDK13/Cyclin K, sequence (Q14004 other isoform, or with tags, fused parts or gaps): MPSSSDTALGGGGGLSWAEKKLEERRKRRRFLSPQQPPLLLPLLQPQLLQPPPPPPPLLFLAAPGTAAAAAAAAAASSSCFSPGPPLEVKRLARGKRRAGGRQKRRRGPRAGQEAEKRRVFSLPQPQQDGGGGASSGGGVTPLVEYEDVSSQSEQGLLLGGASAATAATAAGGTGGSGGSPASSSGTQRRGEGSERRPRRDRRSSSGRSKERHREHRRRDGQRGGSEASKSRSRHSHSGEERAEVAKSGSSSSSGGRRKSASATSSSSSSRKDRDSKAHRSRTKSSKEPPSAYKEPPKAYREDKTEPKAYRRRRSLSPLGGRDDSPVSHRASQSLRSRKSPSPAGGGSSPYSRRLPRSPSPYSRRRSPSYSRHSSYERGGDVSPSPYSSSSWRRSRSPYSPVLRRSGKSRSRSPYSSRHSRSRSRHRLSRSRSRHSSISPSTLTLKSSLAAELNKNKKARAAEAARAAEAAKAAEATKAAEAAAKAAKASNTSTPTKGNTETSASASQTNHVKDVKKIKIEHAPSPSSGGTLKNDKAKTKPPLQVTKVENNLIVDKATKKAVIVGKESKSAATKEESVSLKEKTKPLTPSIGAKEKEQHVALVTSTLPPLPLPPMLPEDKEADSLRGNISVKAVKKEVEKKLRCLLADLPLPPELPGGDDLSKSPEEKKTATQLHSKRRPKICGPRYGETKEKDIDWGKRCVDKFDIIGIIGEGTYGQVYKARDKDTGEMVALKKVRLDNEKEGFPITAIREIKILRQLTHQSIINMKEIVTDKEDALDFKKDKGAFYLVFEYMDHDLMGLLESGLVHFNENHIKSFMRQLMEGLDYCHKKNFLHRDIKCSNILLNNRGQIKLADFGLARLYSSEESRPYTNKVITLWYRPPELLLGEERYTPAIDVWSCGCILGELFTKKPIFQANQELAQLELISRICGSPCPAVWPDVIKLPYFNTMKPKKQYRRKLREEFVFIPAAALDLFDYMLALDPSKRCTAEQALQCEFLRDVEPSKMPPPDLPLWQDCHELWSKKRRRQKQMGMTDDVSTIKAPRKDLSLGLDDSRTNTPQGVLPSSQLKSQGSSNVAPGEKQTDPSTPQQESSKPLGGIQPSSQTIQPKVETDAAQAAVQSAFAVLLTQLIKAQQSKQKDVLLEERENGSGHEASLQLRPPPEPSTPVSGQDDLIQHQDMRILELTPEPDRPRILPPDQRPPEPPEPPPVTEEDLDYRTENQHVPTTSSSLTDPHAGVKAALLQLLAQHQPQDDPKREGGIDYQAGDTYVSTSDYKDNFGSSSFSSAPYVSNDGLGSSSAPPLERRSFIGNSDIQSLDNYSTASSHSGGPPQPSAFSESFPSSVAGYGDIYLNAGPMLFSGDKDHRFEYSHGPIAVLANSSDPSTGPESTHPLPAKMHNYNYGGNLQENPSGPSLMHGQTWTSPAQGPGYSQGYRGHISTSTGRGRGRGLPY

CDK15/Cyclin Y = CDK15/Cyclin Y (Homo sapiens, UniProt Q96Q40); assay: NanoBRET live-cell target engagement, NanoLuc-CDK15/Cyclin Y in HEK-293; format: binding; details: CDK15/Y, read-out: Inhibition at 10µM (%)
CDK16/Cyclin Y = CDK16/Cyclin Y (Homo sapiens, UniProt Q00536); assay: NanoBRET live-cell target engagement, CDK16-NanoLuc/Cyclin Y in HEK-293; format: binding; details: CDK16/Y; for IC50: read-out: IC50; for inhibition at 10 µM: read-out: Inhibition at 10µM (%)
CDK17/Cyclin Y = CDK17/Cyclin Y (Homo sapiens, UniProt Q00537); assay: NanoBRET live-cell target engagement, CDK17-NanoLuc/Cyclin Y in HEK-293; format: binding; details: CDK17/Y, read-out: Inhibition at 10µM (%)
CDK18/Cyclin Y = CDK18/Cyclin Y (Homo sapiens, UniProt Q07002); assay: NanoBRET live-cell target engagement, CDK18-NanoLuc/Cyclin Y in HEK-293; format: binding; details: CDK18/Y, read-out: Inhibition at 10µM (%)
CDK20/Cyclin H = CDK20/Cyclin H (Homo sapiens, UniProt Q8IZL9); assay: NanoBRET live-cell target engagement, NanoLuc-CDK20/Cyclin H in HEK-293; format: binding; details: CDK20/H, read-out: Inhibition at 10µM (%)
CDK19/Cyclin C = CDK19/Cyclin C (Homo sapiens, UniProt Q9BWU1); assay: NanoBRET live-cell target engagement, NanoLuc-CDK19/Cyclin C in HEK-293; details: read-out: Inhibition at 10µM (%), CDK19/C
CDK19/Cyclin C, sequence (Q9BWU1 whole entry): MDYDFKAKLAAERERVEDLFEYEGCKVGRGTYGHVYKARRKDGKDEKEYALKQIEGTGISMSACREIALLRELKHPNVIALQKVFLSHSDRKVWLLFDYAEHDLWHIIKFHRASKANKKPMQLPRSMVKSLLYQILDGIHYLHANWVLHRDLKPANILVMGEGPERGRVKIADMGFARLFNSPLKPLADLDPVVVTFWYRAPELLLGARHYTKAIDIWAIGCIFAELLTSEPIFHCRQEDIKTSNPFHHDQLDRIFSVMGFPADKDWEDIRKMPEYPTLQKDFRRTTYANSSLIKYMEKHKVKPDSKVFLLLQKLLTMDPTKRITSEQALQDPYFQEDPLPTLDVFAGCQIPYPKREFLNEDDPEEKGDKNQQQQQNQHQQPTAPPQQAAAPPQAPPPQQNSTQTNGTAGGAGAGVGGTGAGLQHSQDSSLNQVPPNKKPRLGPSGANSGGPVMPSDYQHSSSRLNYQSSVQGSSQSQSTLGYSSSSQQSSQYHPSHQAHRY
CDK19/Cyclin C, sequence (P24863 whole entry partner): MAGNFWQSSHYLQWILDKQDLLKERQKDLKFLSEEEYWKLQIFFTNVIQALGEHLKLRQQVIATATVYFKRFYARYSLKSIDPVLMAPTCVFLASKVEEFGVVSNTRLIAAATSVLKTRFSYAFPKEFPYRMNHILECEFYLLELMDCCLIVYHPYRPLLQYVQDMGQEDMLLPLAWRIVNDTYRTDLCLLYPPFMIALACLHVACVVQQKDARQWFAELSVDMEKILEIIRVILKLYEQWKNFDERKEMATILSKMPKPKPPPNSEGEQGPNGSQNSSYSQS

CDK1/Cyclin E1, sequence (P06493 whole entry): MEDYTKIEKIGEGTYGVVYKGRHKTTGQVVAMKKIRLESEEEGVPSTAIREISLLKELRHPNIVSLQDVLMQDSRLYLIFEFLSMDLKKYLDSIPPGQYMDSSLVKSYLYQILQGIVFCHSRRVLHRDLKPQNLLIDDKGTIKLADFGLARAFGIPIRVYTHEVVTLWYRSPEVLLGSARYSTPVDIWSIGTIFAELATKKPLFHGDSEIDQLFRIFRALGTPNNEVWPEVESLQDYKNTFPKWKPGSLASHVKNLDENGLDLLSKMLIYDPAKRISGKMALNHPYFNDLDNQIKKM
CDK1/Cyclin E1, sequence (P24864 whole entry partner): as the sequence (P24864 whole entry partner) above

- inhibition at 10 µM (CDK1/Cyclin E1; average): 20%
- inhibition at 10 µM (CDK1/Cyclin E1; experiment 1): 32.3%
- inhibition at 10 µM (CDK1/Cyclin E1; experiment 2): 7.8%
- inhibition at 10 µM (CDK2/Cyclin E1; average): 17.7%
- inhibition at 10 µM (CDK2/Cyclin E1; experiment 1): 12.1%
- inhibition at 10 µM (CDK2/Cyclin E1; experiment 2): 23.4%
- inhibition at 10 µM (CDK3/Cyclin E1; average): 28.6%
- inhibition at 10 µM (CDK3/Cyclin E1; experiment 1): 27.5%
- inhibition at 10 µM (CDK3/Cyclin E1; experiment 2): 29.8%
- IC50 (CDK4/Cyclin D1; average (± SEM where n=3)): 650 nM
- inhibition at 10 µM (CDK4/Cyclin D1; average): 45.1%
- IC50 (CDK4/Cyclin D1; experiment 1): 561 nM
- inhibition at 10 µM (CDK4/Cyclin D1; experiment 1): 53.4%
- IC50 (CDK4/Cyclin D1; experiment 2): 746 nM
- inhibition at 10 µM (CDK4/Cyclin D1; experiment 2): 36.9%
- inhibition at 10 µM (CDK5/CDK5R1; experiment 1): 7.6%
- inhibition at 10 µM (CDK5/CDK5R1; experiment 2): 10%
- IC50 (CDK6/Cyclin D1; average (± SEM where n=3)): 320 nM
- inhibition at 10 µM (CDK6/Cyclin D1; average): 50.9%
- IC50 (CDK6/Cyclin D1; experiment 1): 318 nM
- inhibition at 10 µM (CDK6/Cyclin D1; experiment 1): 50.7%
- IC50 (CDK6/Cyclin D1; experiment 2): 314 nM
- inhibition at 10 µM (CDK6/Cyclin D1; experiment 2): 51.1%
- IC50 (CDK7; average (± SEM where n=3)): 820 nM
- inhibition at 10 µM (CDK7; average): 50.4%
- IC50 (CDK7; experiment 1): 760 nM
- inhibition at 10 µM (CDK7; experiment 1): 28.7%
- IC50 (CDK7; experiment 2): 880 nM
- inhibition at 10 µM (CDK7; experiment 2): 72.1%
- inhibition at 10 µM (CDK8/Cyclin C; average): 2.5%
- inhibition at 10 µM (CDK8/Cyclin C; experiment 1): 15.9%
- inhibition at 10 µM (CDK8/Cyclin C; experiment 2): -10.8%
- inhibition at 10 µM (CDK9/Cyclin K; average): 29.7%
- inhibition at 10 µM (CDK9/Cyclin K; experiment 1): 29.8%
- inhibition at 10 µM (CDK9/Cyclin K; experiment 2): 29.7%
- inhibition at 10 µM (CDK11A/Cyclin L2; average): 26.4%
- inhibition at 10 µM (CDK11A/Cyclin L2; experiment 1): 31.7%
- inhibition at 10 µM (CDK11A/Cyclin L2; experiment 2): 21.1%
- inhibition at 10 µM (CDK11B/Cyclin L2; average): 52.5%
- inhibition at 10 µM (CDK11B/Cyclin L2; experiment 1): 32.8%
- inhibition at 10 µM (CDK11B/Cyclin L2; experiment 2): 72.2%
- inhibition at 10 µM (CDK12/Cyclin K; average): -8.8%
- inhibition at 10 µM (CDK12/Cyclin K; experiment 1): 5.9%
- inhibition at 10 µM (CDK12/Cyclin K; experiment 2): -23.5%
- inhibition at 10 µM (CDK13/Cyclin K; average): 3.2%
- inhibition at 10 µM (CDK13/Cyclin K; experiment 1): 4.9%
- inhibition at 10 µM (CDK13/Cyclin K; experiment 2): 1.4%
- inhibition at 10 µM (CDK15/Cyclin Y; average): 8.1%
- inhibition at 10 µM (CDK15/Cyclin Y; experiment 1): 12.2%
- inhibition at 10 µM (CDK15/Cyclin Y; experiment 2): 4%
- IC50 (CDK16/Cyclin Y; average (± SEM where n=3)): 450 nM
- IC50 (CDK16/Cyclin Y; experiment 1): 177 nM
- inhibition at 10 µM (CDK16/Cyclin Y; experiment 1): 31.8%
- IC50 (CDK16/Cyclin Y; experiment 2): 730 nM
- inhibition at 10 µM (CDK16/Cyclin Y; experiment 2): 64.3%
- inhibition at 10 µM (CDK17/Cyclin Y; average): 43.1%
- inhibition at 10 µM (CDK17/Cyclin Y; experiment 1): 26.9%
- inhibition at 10 µM (CDK17/Cyclin Y; experiment 2): 59.3%
- inhibition at 10 µM (CDK18/Cyclin Y; average): 18.4%
- inhibition at 10 µM (CDK18/Cyclin Y; experiment 1): 14.9%
- inhibition at 10 µM (CDK18/Cyclin Y; experiment 2): 21.8%
- inhibition at 10 µM (CDK20/Cyclin H; experiment 1): 10.6%
- inhibition at 10 µM (CDK20/Cyclin H; experiment 2): -4.4%
- inhibition at 10 µM (CDK19/Cyclin C; average): 6.1%
- inhibition at 10 µM (CDK19/Cyclin C; experiment 1): 10.6%
- inhibition at 10 µM (CDK19/Cyclin C; experiment 2): 1.6%
SMILES: N#CCNC(=O)c1ccc(-c2ccnc(Nc3ccc(N4CCOCC4)cc3)n2)cc1 [Momelotinib]
